Experimental data taken from patent US20140295512A1, “Ketol-Acid Reductoisomerases With Improved Performance Properties” (CALIFORNIA INSTITUTE OF TECHNOLOGY, priority 2011, published 2014).
Where “and” joins values, the source holds several entries; their conditions need not be identical. Identical values can stand only once.

Experiments:
Ec_ilvC^P2D1-A1 = experiment: NKR assay in microtiter plates to measure inhibition by DHIV; assay type: biochemical, E. coli; settings: 200 μM NADH, varied (S)-2-acetolactate, pH 7; read-out: K of Ec_ilvC^P2D1-A1 for DHIV (inhibition constant)
Protocol: NKR activity was assayed kinetically by monitoring the decrease in NADH concentration by measuring the absorbance at 340 nm. A reaction buffer was prepared containing 250 mM potassium phosphate pH 7, 1 mM DTT, 200 μM NADH, 2.5 mM (S)-2-acetolactate, and 10 mM MgCl2. Ten μL purified enzyme were placed into a microtiter plate. The reaction was initiated by addition of 90 μL of the reaction buffer. The kinetics with respect to substrate conversion in presence of the inhibitor were determined by varying the substrate concentration (5.1, 2.55, 1.275, 0.638, 0.319, 0.159, and 0.0799 mM), while keeping the cofactor concentration constant at 200 μM. The inhibition constant was measured by repeating these measurements with different amounts of inhibitor (0, 0.07, 0.13, 0.26, 0.51, and 1.07 mM, final concentrations).

E. coli KARI = E. coli KARI (Escherichia coli, UniProt P05793); experiment: KARI assay in 100-μL scale to measure IC50 in presence of R-DHIV; assay type: biochemical; settings: for Ki: calculated via Cheng-Prusoff equation
Protocol: (§1) Assay buffers were prepared containing 250 mM potassium phosphate pH 7.0, 1 mM DTT, 10 mM MgCl2, 2.5 mM acetolactate, 200 μM NADPH, and increasing concentrations of R-DHIV (0-85.5 mM (final concentrations). Ten μL purified enzyme were placed into a flat-bottom assay plate (Evergreen Scientific). The reactions were initiated by addition of 90 μL assay buffer. The change in absorbance at 340 nm was monitored over 1 min in a plate reader (TECAN).

L. lactis KARI = L. lactis KARI (Lactococcus lactis subsp. lactis, UniProt Q02138); experiment: as above; assay type: biochemical
Protocol: as §1

S. exigua KARI = S. exigua KARI (Slackia exigua, UniProt D0WGK0); experiment: as above; assay type: biochemical
Protocol: as §1

[1] = 2.5 mM acetolactate, 200 μM NADPH, pH 7.0
[2] = calculated via Cheng-Prusoff equation

S. exigua KARI, sequence (D0WGK0 whole entry): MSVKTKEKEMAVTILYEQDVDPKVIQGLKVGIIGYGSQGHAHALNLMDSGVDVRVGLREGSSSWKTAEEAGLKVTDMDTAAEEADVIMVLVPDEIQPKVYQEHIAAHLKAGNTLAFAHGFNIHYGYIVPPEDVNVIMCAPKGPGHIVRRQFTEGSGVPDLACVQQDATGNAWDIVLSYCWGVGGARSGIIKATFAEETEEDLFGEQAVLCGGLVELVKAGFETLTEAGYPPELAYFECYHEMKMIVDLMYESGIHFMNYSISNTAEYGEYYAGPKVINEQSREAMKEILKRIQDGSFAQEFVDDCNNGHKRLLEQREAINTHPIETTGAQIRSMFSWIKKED
E. coli KARI, sequence (P05793 whole entry): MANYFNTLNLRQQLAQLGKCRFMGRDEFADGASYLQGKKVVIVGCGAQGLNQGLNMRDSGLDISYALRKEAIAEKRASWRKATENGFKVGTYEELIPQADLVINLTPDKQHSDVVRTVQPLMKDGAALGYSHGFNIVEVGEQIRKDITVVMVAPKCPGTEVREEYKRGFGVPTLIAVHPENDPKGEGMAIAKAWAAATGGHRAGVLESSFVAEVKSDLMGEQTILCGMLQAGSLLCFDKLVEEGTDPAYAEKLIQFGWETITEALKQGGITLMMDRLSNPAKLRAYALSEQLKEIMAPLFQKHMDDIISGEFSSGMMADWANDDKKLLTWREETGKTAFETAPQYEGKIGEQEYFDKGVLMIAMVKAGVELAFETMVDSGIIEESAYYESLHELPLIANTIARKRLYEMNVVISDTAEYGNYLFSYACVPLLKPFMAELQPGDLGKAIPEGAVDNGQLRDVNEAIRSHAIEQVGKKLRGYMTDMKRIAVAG
L. lactis KARI, sequence (Q02138 whole entry): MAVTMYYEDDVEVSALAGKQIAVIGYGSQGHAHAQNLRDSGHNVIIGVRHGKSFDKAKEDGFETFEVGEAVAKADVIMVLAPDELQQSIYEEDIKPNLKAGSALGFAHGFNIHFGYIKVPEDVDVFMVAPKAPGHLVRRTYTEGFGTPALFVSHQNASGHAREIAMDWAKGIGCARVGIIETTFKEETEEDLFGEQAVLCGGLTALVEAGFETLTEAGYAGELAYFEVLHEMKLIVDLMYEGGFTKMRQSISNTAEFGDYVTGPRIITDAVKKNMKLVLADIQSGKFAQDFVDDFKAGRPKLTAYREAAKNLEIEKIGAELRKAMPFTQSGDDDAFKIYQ

Compound	Ki (Ec_ilvC^P2D1-A1)	Ki (E. coli KARI)	IC50 (L. lactis KARI; [1])	Ki (L. lactis KARI; [2])	IC50 on S. exigua KARI, times higher than IC50 of the E. coli KARI (S. exigua KARI)	IC50 on S. exigua KARI, times higher than IC50 of the L. lactis KARI (S. exigua KARI)	Ki on S. exigua KARI, times higher than Ki calculated for E. coli KARI (S. exigua KARI)	IC50 (S. exigua KARI; [1])	Ki (S. exigua KARI; [2])	IC50 (E. coli KARI; [1])
CC(C)(O)C(O)C(=O)O (centres unmarked) [DHIV, 2,3-dihydroxyisovalerate]	45 µM	100 µM								
CC(C)(O)[C@@H](O)C(=O)O [R-DHIV]		100 µM	2500 ± 700 µM	1700 µM	27 fold	10 fold	17 fold	26700 µM and 27000 µM	1700 µM	1000 µM and 1100 µM
